In patent publication US6737383B1, “Herbicidal oxadiazolidines” (priority 1999, dated 2004):

Tests used:
bedstraw = assay: Test B pre/postemergence bedstraw; assay type: in vivo, Galium aparine; settings: Preemergence, Rate 62 g/ha; scale 0 to 10 (0 no effect, 10 complete control)
How it was run: (§1)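 Herbicidal effect was estimated by eye on a ten-point control scale after plants spent twelve to sixteen days in a greenhouse following soil or foliar treatment. Foliar sprays targeted plants at one to four leaves; all doses were formulated in a non-phytotoxic solvent with surfactant.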

blackgrass = assay: Test B pre/postemergence blackgrass; assay type: in vivo, Alopecurus myosuroides
How it was run: as §1

surinam grass = assay: Test B pre/postemergence surinam grass; assay type: in vivo, Brachiaria decumbens
How it was run: as §1

corn = assay: Test B pre/postemergence corn; assay type: in vivo, Zea mays
How it was run: as §1

crabgrass = assay: Test B pre/postemergence crabgrass; assay type: in vivo, Digitaria sanguinalis
How it was run: as §1

pigweed = assay: Test B pre/postemergence pigweed; assay type: in vivo, Amaranthus retroflexus
How it was run: as §1

rape = assay: Test B pre/postemergence rape; assay type: in vivo, Brassica napus
How it was run: as §1

soybean = assay: Test B pre/postemergence soybean; assay type: in vivo, Glycine max
How it was run: as §1

sugar beet = assay: Test B pre/postemergence sugar beet; assay type: in vivo, Beta vulgaris
How it was run: as §1

velvetleaf = assay: Test B pre/postemergence velvetleaf; assay type: in vivo, Abutilon theophrasti
How it was run: as §1

wheat = assay: Test B pre/postemergence wheat; assay type: in vivo, Triticum aestivum
How it was run: as §1

wild oat = assay: Test B pre/postemergence wild oat; assay type: in vivo, Avena fatua
How it was run: as §1

purple nutsedge = assay: Test B pre/postemergence purple nutsedge; assay type: in vivo, Cyperus rotundus
How it was run: as §1

rice = assay: Test B flood test rice; assay type: in vivo, Oryza sativa
How it was run: (§2)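 Read-out is a visual response score from 0 (no effect) to 10 (complete control), assigned by comparison with untreated controls. Treatment was applied at the 2-leaf stage, and plants stayed in the greenhouse for twelve to sixteen days before scoring.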

smallflower flatsedge = assay: Test B flood test smallflower flatsedge; assay type: in vivo, Cyperus difformis
How it was run: as §2

duck salad = assay: Test B flood test duck salad; assay type: in vivo, Heteranthera limosa
How it was run: as §2

[1] = Postemergence, Rate 125 g/ha, scale 0 to 10, 0 is no effect, 10 is complete control
[2] = Postemergence, Rate 250 g/ha, scale 0 to 10, 0 is no effect, 10 is complete control
[3] = Postemergence, Rate 500 g/ha, scale of 0 to 10 where 0 is no effect and 10 is complete control
[4] = Preemergence, Rate 62 g/ha, scale 0 to 10 (0 no effect, 10 complete control)
[5] = Preemergence, Rate 125 g/ha, scale of 0 to 10 where 0 is no effect and 10 is complete control
[6] = Preemergence, Rate 250 g/ha, scale of 0 to 10 where 0 is no effect and 10 is complete control
[7] = Preemergence, Rate 500 g/ha, scale of 0 to 10 where 0 is no effect and 10 is complete control
[8] = Rate 62 g/ha, Postemergence, scale of 0 to 10 where 0 is no effect and 10 is complete control
[9] = Rate 62 g/ha, flood test species, Pre-emergence, visual evaluation after twelve to sixteen days
[10] = Rate 125 g/ha, under heading Pre-emergence, flood test species, visual evaluation after twelve to sixteen days
[11] = Rate 250 g/ha, Pre-emergence, flood-test species, scale 0 to 10, 0 is no effect, 10 is complete control
[12] = Rate 500 g/ha, Pre-emergence, flood test species, scale 0 to 10 (0 no effect, 10 complete control)

CC(C)N(C(=O)n1oc(=O)n(C(C)Cl)c1=O)c1ccc(F)cc1 (stereo not shown) [Compound 393]
Plant response rating, Bedstraw (bedstraw): 0 | Plant response rating, Blackgrass (blackgrass; [1]): 2 | Plant response rating, Blackgrass (blackgrass; [2]): 3 | Blackgrass plant response rating (blackgrass; [3]): 8 | Plant response rating, Blackgrass (blackgrass; [4]): 0 | Plant response rating, Blackgrass (blackgrass; [5]): 0 | Blackgrass plant response rating (blackgrass; [6]): 0 | Blackgrass plant response rating (blackgrass; [7]): 3 | Blackgrass plant response rating (blackgrass; [8]): 0 | Plant response rating, B. signalgrass (surinam grass; [1]): 0 | Plant response rating, B. signalgrass (surinam grass; [2]): 0 | B. signalgrass plant response rating (surinam grass; [3]): 0 | Plant response rating, B. signalgrass (surinam grass; [4]): 0 | Plant response rating, B. signalgrass (surinam grass; [5]): 0 | B. signalgrass plant response rating (surinam grass; [6]): 0 | B. signalgrass plant response rating (surinam grass; [7]): 2 | B. signalgrass plant response rating (surinam grass; [8]): 0 | Plant response rating, Corn (corn; [1]): 0 | Plant response rating, Corn (corn; [2]): 0 | Corn plant response rating (corn; [3]): 0 | Plant response rating, Corn (corn; [4]): 0 | Plant response rating, Corn (corn; [5]): 0 | Corn plant response rating (corn; [6]): 0 | Corn plant response rating (corn; [7]): 0 | Corn plant response rating (corn; [8]): 0 | Plant response rating, Crabgrass (crabgrass; [1]): 1 | Plant response rating, Crabgrass (crabgrass; [2]): 5 | Crabgrass plant response rating (crabgrass; [3]): 8 | Plant response rating, Crabgrass (crabgrass; [4]): 0 | Plant response rating, Crabgrass (crabgrass; [5]): 2 | Crabgrass plant response rating (crabgrass; [6]): 3 | Crabgrass plant response rating (crabgrass; [7]): 8 | Crabgrass plant response rating (crabgrass; [8]): 0 | Plant response rating, Redroot pigweed (pigweed; [2]): 0 | Redroot pigweed plant response rating (pigweed; [3]): 0 | Plant response rating, Redroot pigweed (pigweed; [4]): 0 | Plant response rating, Redroot pigweed (pigweed; [5]): 2 | Redroot pigweed plant response rating (pigweed; [6]): 2 | Redroot pigweed plant response rating (pigweed; [7]): 10 | Redroot pigweed plant response rating (pigweed; [8]): 0 | Plant response rating, Rape (rape; [2]): 3 | Plant response rating, Rape (rape; [4]): 0 | Plant response rating, Rape (rape; [5]): 0 | Rape plant response rating (rape; [6]): 0 | Rape plant response rating (rape; [7]): 0 | Plant response rating, Soybean (soybean; [2]): 2 | Soybean plant response rating (soybean; [3]): 2 | Plant response rating, Soybean (soybean; [4]): 0 | Plant response rating, Soybean (soybean; [5]): 0 | Soybean plant response rating (soybean; [6]): 0 | Soybean plant response rating (soybean; [7]): 0 | Soybean plant response rating (soybean; [8]): 1 | Plant response rating, Sugarbeets (sugar beet; [2]): 0 | Sugarbeets plant response rating (sugar beet; [3]): 7 | Plant response rating, Sugarbeets (sugar beet; [4]): 0 | Plant response rating, Sugarbeets (sugar beet; [5]): 2 | Sugarbeets plant response rating (sugar beet; [6]): 2 | Sugarbeets plant response rating (sugar beet; [7]): 3 | Sugarbeets plant response rating (sugar beet; [8]): 0 | Plant response rating, Velvetleaf (velvetleaf; [2]): 0 | Velvetleaf plant response rating (velvetleaf; [3]): 0 | Plant response rating, Velvetleaf (velvetleaf; [4]): 0 | Plant response rating, Velvetleaf (velvetleaf; [5]): 0 | Velvetleaf plant response rating (velvetleaf; [6]): 0 | Velvetleaf plant response rating (velvetleaf; [7]): 0 | Velvetleaf plant response rating (velvetleaf; [8]): 0 | Wheat plant response rating (wheat; [3]): 0 | Plant response rating, Wheat (wheat; [4]): 0 | Plant response rating, Wheat (wheat; [5]): 0 | Wheat plant response rating (wheat; [6]): 0 | Wheat plant response rating (wheat; [7]): 0 | Wheat plant response rating (wheat; [8]): 0 | Wild oats plant response rating (wild oat; [3]): 0 | Plant response rating, Wild oats (wild oat; [4]): 0 | Plant response rating, Wild oats (wild oat; [5]): 0 | Wild oats plant response rating (wild oat; [6]): 0 | Wild oats plant response rating (wild oat; [7]): 3 | Wild oats plant response rating (wild oat; [8]): 0 | Plant response rating, Nutsedge (purple nutsedge; [2]): 0 | Nutsedge plant response rating (purple nutsedge; [3]): 0 | Plant response rating, Nutsedge (purple nutsedge; [4]): 0 | Plant response rating, Nutsedge (purple nutsedge; [5]): 0 | Nutsedge plant response rating (purple nutsedge; [6]): 0 | Nutsedge plant response rating (purple nutsedge; [7]): 0 | Nutsedge plant response rating (purple nutsedge; [8]): 0 | Plant response rating, Rice (0 to 10 scale, 0 is no effect, 10 is complete control) (rice; [9]): 0 | Rice plant response rating (0 to 10 scale, 0 is no effect, 10 is complete control) (rice; [10]): 0 | Rice plant response rating (rice; [11]): 0 | Rice plant response rating (rice; [12]): 0 | Plant response rating, S. Flatsedge (0 to 10 scale, 0 is no effect, 10 is complete control) (smallflower flatsedge; [9]): 0 | S. Flatsedge plant response rating (0 to 10 scale, 0 is no effect, 10 is complete control) (smallflower flatsedge; [10]): 0 | S. Flatsedge plant response rating (smallflower flatsedge; [11]): 0 | S. Flatsedge plant response rating (smallflower flatsedge; [12]): 0 | Plant response rating, Ducksalad (0 to 10 scale, 0 is no effect, 10 is complete control) (duck salad; [9]): 0 | Ducksalad plant response rating (0 to 10 scale, 0 is no effect, 10 is complete control) (duck salad; [10]): 0 | Ducksalad plant response rating (duck salad; [11]): 0 | Ducksalad plant response rating (duck salad; [12]): 0
